Data from patent US20240174727A1, “LONG-ACTING NATRIURETIC PEPTIDES AND USES THEREOF” (Eli Lilly and Company, priority 2022, published 2024).
Like-named read-outs stand apart in the source and are kept apart here. Numbered stars: 1 amine (or outer) side, 2 acyl side, 3 side chain; on linkers, the order of the positions; unused ones are H or OH. Bridge positions count the residues as written; N and C are the ends. Square brackets hold non-standard residues; d marks the D form. Peptide text beside a SMILES is read from it. * marks the point of attachment. PEG24 = NCCOCCOCCOCCOCCOCCOCCOCCOCCOCCOCCOCCOCCOCCOCCOCCOCCOCCOCCOCCOCCOCCOCCOCCOCCC(=O)O; C20 diacid = O=C(O)CCCCCCCCCCCCCCCCCCC(=O)*; γGlu = O=C(O)[C@H](CCC(=O)[*:2])N[*:1]; 4Pal = N[C@@H](Cc1ccncc1)C(=O)O; Aib = CC(C)(N)C(=O)O; CH2 = C([*:1])[*:2]

Target: T1, human NPRA (Homo sapiens, UniProt P16066)
T1 construct: Full-Length cDNA Cloning and Generation of Cell Lines Overexpressing Natriuretic Peptide Receptors (NPRs); expressed in transfected cells; host or cells: Jump-in T-Rex HEK293 cells, pJTI R4 CMV-TO MCS pA vector, tetracycline induction
T1 sequence (P16066 33-1061): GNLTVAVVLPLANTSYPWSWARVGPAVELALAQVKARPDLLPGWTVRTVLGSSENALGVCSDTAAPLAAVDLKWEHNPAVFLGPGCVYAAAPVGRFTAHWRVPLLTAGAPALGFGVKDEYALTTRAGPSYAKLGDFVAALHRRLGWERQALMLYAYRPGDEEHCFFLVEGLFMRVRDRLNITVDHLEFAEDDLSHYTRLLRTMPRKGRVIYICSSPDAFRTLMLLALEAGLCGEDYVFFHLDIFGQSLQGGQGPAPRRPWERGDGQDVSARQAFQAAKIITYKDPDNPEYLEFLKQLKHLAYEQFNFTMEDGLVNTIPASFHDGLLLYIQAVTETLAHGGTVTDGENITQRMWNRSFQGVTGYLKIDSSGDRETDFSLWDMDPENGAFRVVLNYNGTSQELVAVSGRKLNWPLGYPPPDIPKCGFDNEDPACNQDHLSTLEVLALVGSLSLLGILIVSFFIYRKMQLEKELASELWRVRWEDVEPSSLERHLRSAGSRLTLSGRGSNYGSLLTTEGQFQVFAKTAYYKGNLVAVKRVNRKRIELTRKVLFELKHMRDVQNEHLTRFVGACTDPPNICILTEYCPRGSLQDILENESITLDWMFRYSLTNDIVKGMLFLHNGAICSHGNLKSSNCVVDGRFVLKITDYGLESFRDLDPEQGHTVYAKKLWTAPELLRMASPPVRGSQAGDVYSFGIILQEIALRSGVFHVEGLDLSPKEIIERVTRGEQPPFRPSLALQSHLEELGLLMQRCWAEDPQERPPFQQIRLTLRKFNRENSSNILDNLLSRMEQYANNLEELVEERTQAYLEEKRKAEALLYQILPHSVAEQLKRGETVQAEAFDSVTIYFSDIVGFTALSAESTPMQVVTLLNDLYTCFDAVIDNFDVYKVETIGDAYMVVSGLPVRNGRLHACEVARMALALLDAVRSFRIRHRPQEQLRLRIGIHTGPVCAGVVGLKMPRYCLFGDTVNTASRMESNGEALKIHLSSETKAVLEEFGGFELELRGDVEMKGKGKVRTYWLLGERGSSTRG
Assay: Human NPRA cGMP activity assay (HTRF) in HEK293 cells overexpressing NPRA
Type: cell-based
Description: All sequences were verified by full-length sequencing performed by ACGT DNA Sequencing Services (Wheeling, IL). The target cDNA was cloned into pJTI R4 CMV-TO MCS pA vector and then co-transfected with pJT1R4 Int vector into Jump-in™ T-Rex™ HEK293 cells for mammalian inducible expression using Jump-in™ T-Rex™ HEK293 kit and Lipofectamine LTX and Plus Reagent following manufacturer's protocols, as briefly described below.
Jump-in™ T-Rex™ HEK293 cells were plated in a BioCOAT® poly-D-lysine coated 6-well plate (Becton Dickinson, cat no. 354413) at 1 million cells/well in 2 mL culture medium and incubated for 18 h at 37° C. and 5% CO2 to 50-70% confluence. A cDNA mix was made in a 50 mL tube by adding 1.5 μg target cDNA, 1.5 μg pJT1R4 Int vector, 3 μL Plus Reagent, and 300 μL Opti-MEM I sequentially into the tube. A reagent mix was made in a separate 50 mL tube by adding 7.5 μL Lipofectamine LTX into 300 μL Opti-MEM I. The mixtures were incubated for 5 min at room temperature. The cDNA mix was then transferred into the reagent mix, mixed well, and incubated for additional 30 min at room temperature. A 500 μL of cDNA/Lipofectamine complex was then transferred to the wells of the cell plate in which the culture medium was changed to 2 mL of transfection medium containing DMEM with 4.5 g/L D-glucose supplemented with 10% FBS-HI and 20 mM HEPES. Transfected cells were cultured for 48 h in an incubator at 37° C. and 5% CO2. A subclone or pool from each overexpressing cell line was maintained in culture medium with the addition of 2 mg/mL G418 sulfate for the clone selection based on its built-in resistance to G418 sulfate for at least 3 weeks with medium changed every 2-3 days.
NPRs were overexpressed in T-Rex™ HEK293 cells following the induction with 300 ng/mL tetracycline in culture medium for 48 h. Induced cell lines in an exponential growth phase were treated with 0.05% trypsin-EDTA for a few seconds at room temperature, harvested in cell medium containing FBS to neutralize the trypsin, counted, and cryopreserved at the density of 2 million cells/mL in cell preservation solution containing FBS-HI with 5% DMSO. Cryopreserved cells were stored at −80° C. for a few days prior to transferring to a liquid nitrogen tank. Induced cell lines were then used for suspension assays to measure the activity of polypeptides to stimulate cGMP production in cGMP assays or for the preparation of cell membranes to measure the binding activity of polypeptides in competitive radioligand binding assays, as described below.
Test polypeptides were added starting at 10 μM concentration and at 10-fold decreasing concentrations to obtain 8-point concentration-response curves (i.e., 10 μM to 1 pM). The quantity of cGMP generated was detected using HTRF® technology and normalized to maximum amount produced by 100 nM amidated rat ANP and the minimum amount produced by assay buffer. Detailed steps are outlined below.
Stock solutions of test polypeptides (2 mM) dissolved in DMSO were first diluted 100-fold in assay buffer containing HBSS with Ca^2+ and Mg^2+, 5 mM HEPES, 0.5 mM IBMX, and 0.1% BSA or 0.1% casein (pH 7.4). The polypeptides were further serially diluted in 1:10 dilution steps in assay buffer containing 0.1% BSA or 0.1% casein to generate 8-point 2× working stock solutions ranging from 20 μM to […].
A 10 μL cell suspension containing 4000 cells was plated in Costar® half-area white opaque 96-well plates (Corning, cat no. 3693). Then 10 μL of assay buffer (basal activity), 200 nM of amidated rat ANP (maximum activity) or 2× working stock solutions of test polypeptides were transferred into the plate. Final concentration of DMSO in each well was 0.5%. The plate was shaken for 15 sec and then incubated for 40 min at room temperature.
The cGMP generated was measured using cGMP kit following the manufacturer's directions, as described below.

[1] = assay buffer with 0.1% casein, read-out: cGMP Assay (EC50, pM) w/Casein hNPRA

| Molecule | EC50 [1] | EC50 (assay buffer with 0.1% BSA, read-out: cGMP Assay (EC50, pM) w/BSA hNPRA) |
| --- | --- | --- |
| CC[C@H](C)[C@@H]1NC(=O)[C@H](CCCNC(=N)N)NC(=O)[C@H](CC(=O)O)NC(=O)[C@H]([C@@H](C)CC)NC(=O)[C@H](CCCNC(=N)N)NC(=O)CNC(=O)[C@H](Cc2c[nH]cn2)NC(=O)[C@H](Cc2ccccc2)NC(=O)[C@@H](NC(=O)[C@H](CO)NC(=O)[C@H](CO)NC(=O)[C@H](CCCNC(=N)N)NC(=O)[C@H](CCCNC(=N)N)NC(=O)[C@H](Cc2c[nH]cn2)NC(=O)[C@H](CO)NC(=O)CNC(=O)[C@H](CCCCN)NC(=O)[C@H](CCC(=O)O)NC(=O)[C@H](CCCCN)NC(=O)[C@H](CCC(=O)O)NC(=O)[C@H](CCCCN)NC(=O)[C@H](CCC(=O)O)NC(=O)CC[C@H](NC(=O)CCCCCCCCCCCCCCCCCCC(=O)O)C(=O)O)CSSC[C@@H](C(=O)N[C@@H](CC(N)=O)C(=O)N[C@@H](CO)C(=O)N[C@@H](Cc2ccccc2)C(=O)N[C@@H](CCCNC(=N)N)C(=O)N[C@@H](Cc2c[nH]cn2)C(N)=O)NC(=O)CNC(=O)[C@H](CC(C)C)NC(=O)CNC(=O)[C@H](CO)NC(=O)[C@H](CCC(N)=O)NC(=O)[C@H](C)NC(=O)[C@H](Cc2c[nH]cn2)NC1=O [Example 16] ({C20 diacid-γGlu}-EKEKEKGSHRRSSCFHGRIDRIHAQSGLGCNSFRH-NH2; disulfide 14-30) | 807 pM |  |
| CC[C@H](C)[C@@H]1NC(=O)[C@H](CCCNC(=N)N)NC(=O)[C@H](CC(=O)O)NC(=O)[C@H]([C@@H](C)CC)NC(=O)[C@H](CCCNC(=N)N)NC(=O)CNC(=O)CNC(=O)[C@H](Cc2ccccc2)NC(=O)[C@@H](NC(=O)[C@H](CO)NC(=O)[C@H](CO)NC(=O)[C@H](CCCNC(=N)N)NC(=O)[C@H](CCCNC(=N)N)NC(=O)[C@H](CC(C)C)NC(=O)[C@H](CO)NC(=O)CNC(=O)[C@H](CCCCN)NC(=O)[C@H](CCC(=O)O)NC(=O)[C@H](CCCCN)NC(=O)[C@H](CCC(=O)O)NC(=O)[C@H](CCCCN)NC(=O)[C@H](CCC(=O)O)NC(=O)CC[C@H](NC(=O)CCCCCCCCCCCCCCCCCCC(=O)O)C(=O)O)CSSC[C@@H](C(=O)N[C@@H](CC(N)=O)C(=O)N[C@@H](CO)C(=O)N[C@@H](Cc2ccccc2)C(=O)N[C@@H](CCCNC(=N)N)C(=O)N[C@@H](Cc2ccncc2)C(N)=O)NC(=O)CNC(=O)[C@H](CC(C)C)NC(=O)CNC(=O)[C@H](CO)NC(=O)[C@H](CCC(N)=O)NC(=O)[C@H](C)NC(=O)CNC1=O [Example 9] ({C20 diacid-γGlu}-EKEKEKGSLRRSSCFGGRIDRIGAQSGLGCNSFR[4Pal]-NH2; disulfide 14-30) |  | 101000 pM |
| CC[C@H](C)[C@@H]1NC(=O)[C@H](CCCNC(=N)N)NC(=O)[C@H](CC(=O)O)NC(=O)[C@H]([C@@H](C)CC)NC(=O)[C@H](CCCNC(=N)N)NC(=O)CNC(=O)CNC(=O)[C@H](Cc2ccccc2)NC(=O)[C@@H](NC(=O)[C@H](CO)NC(=O)[C@H](CO)NC(=O)[C@H](CCCNC(=N)N)NC(=O)[C@H](CCCNC(=N)N)NC(=O)[C@H](Cc2c[nH]cn2)NC(=O)[C@H](CO)NC(=O)CNC(=O)[C@H](CCCCN)NC(=O)[C@H](CCC(=O)O)NC(=O)[C@H](CCCCN)NC(=O)[C@H](CCC(=O)O)NC(=O)[C@H](CCCCN)NC(=O)[C@H](CCC(=O)O)NC(=O)CC[C@H](NC(=O)CCCCCCCCCCCCCCCCCCC(=O)O)C(=O)O)CSSC[C@@H](C(=O)N2CCC[C@H]2C(=O)N[C@@H](CO)C(=O)N[C@@H](Cc2ccccc2)C(=O)N[C@@H](CCCNC(=N)N)C(=O)N[C@@H](Cc2c[nH]cn2)C(N)=O)NC(=O)CNC(=O)[C@H](CC(C)C)NC(=O)CNC(=O)[C@H](CO)NC(=O)[C@H](CCC(N)=O)NC(=O)[C@H](C)NC(=O)CNC1=O [Example 18] ({C20 diacid-γGlu}-EKEKEKGSHRRSSCFGGRIDRIGAQSGLGCPSFRH-NH2; disulfide 14-30) | 460 pM |  |
| {C20 diacid-γGlu}-EKEKEKG[PEG24]S[4Pal]RRSSCFGGRIDRIGHQSGLGCPSFRHGGPPS[Aib]KPPPK-NH2 (linker 15-31 via CH2) [Example 84] | 1010 pM |  |
